The nature of one series: method code SF-AS, from DOI: 10.1021/es00166a009, PMID: 22195514.
Conditions: not given
Usually logP stands for the decadic logarithm of the partition coefficient of the neutral form, usually between octanol and water. `Cc1ccc([N+](=O)[O-])c(O)c1` displayed a logP of 2.31.

Staying with this series, now noted: pH 1.5.
Broadly, the logD is lipophilicity at a set pH, counting ionised and neutral species. Low values mean a more hydrophilic compound, high ones a more lipophilic compound. For `O=[N+]([O-])c1ccc(F)cc1O`, the logD was 1.91.

`Cc1cc(O)c([N+](=O)[O-])cc1Cl` yielded a logD of 2.93. Same read-out and setting: then `O=[N+]([O-])c1cc(C(F)(F)F)ccc1O`, with 2.34. The same measure, in the same setting: with `CCC(C)c1ccc(O)c([N+](=O)[O-])c1` (stereo unspecified) the figure was 3.84; with `O=[N+]([O-])c1cc(-c2ccccc2)ccc1O`, 3.71. Still for that read-out and setting: with `COc1ccc(O)c([N+](=O)[O-])c1` the figure was 2.02; with `Cc1ccc(O)c([N+](=O)[O-])c1`, 2.37.

In the case of `O=Cc1ccc(O)c([N+](=O)[O-])c1`, the logD was 1.48. Consider `O=[N+]([O-])c1ccccc1O`, for which the logD turned out to be 1.89.

A further series in a line: method code SF-AS,RC, from DOI: 10.1021/es00166a009, PMID: 22195514. The settings on record: pH 1.5.
For `Cc1cccc(O)c1[N+](=O)[O-]`, the logD was determined as 2.29.

Source of the values: the SangsterLogP compilation.
